Test results published in patent publication US8389012B2, “Gellan-gum nanoparticles and methods of making and using the same” (The Corporation of Mercer University, priority 2008, dated 2013).
Like-named read-outs stand apart in the source and are kept apart here.

Assays:
DU-145 cells = test: MTT cytotoxicity assay, DU-145; format: cell-based, human; details: then 72 h; for viability at 25 µg/mL: Homo sapiens, DU-145, DU-145, 25 μg/ml Ptx, read-out: cell viability
Protocol: (§1) To investigate the cytotoxicity of Ptx-GGbPEG-Apt nanoparticles on human prostate cancer cells, mitochondrial dehydrogenase assay (MTT) was employed. PC-3 or DU-145 cells (5×10^3) were seeded in 96-well plates containing 100 μl of RPMI medium 1640 (American Type Culture Collection), supplemented with 100 units/ml aqueous penicillin G, 100 μg/ml streptomycin, and 10% FBS. Cells were then allowed to adhere overnight prior to treatment. On the day of experiment, cells were washed twice with PBS and then exposed to similar concentrations (25 μg/ml) of Ptx in either the encapsulated or free formulations. The control cells received 1% (v/v) DMSO or drug free GGbPEG nanoparticles (1.0 μg/ml). Cells were incubated with drug formulations for different time points (10, 30, 120 mins) followed by washing with PBS and replacing treatment medium with fresh medium in the plates. Cells were further incubated for 72 h. At the end of treatment period, medium was removed and replaced with 100 μl of complete culture medium and 10 μl of MTT (5 mg/ml) in each well and the plates were incubated at 37° C. in a humidified, 5% CO2 atmosphere for 3 h. The resulting formazan crystals were solubilized with 100 μl of the stop solution (0.1N HCl in isopropanol). The optical densities (OD) of the resulting solutions were determined at 490 nm using a microplate reader (Packard Instruments, Meriden, Conn.) and cell viability (%) was calculated by comparing the OD of the treatment group relative to that of the untreated control group (100%).

PC-3 tumors [1] = test: Histological analysis of excised tumor (H & E); format: in vivo, mice; details: day 60 post treatment
Protocol: Selected tumors from each group were harvested and fixed in 10% neutral buffered formalin. Tumors were paraffin embedded, sectioned, placed on polylysine slides, and stained with Hematoxylin & Eosin (H & E) to visualize morphological changes in the tumors in both the treated and control groups. Images were recorded using a light microscope equipped with camera.

PC-3 tumors [2] = test: In vivo efficacy in athymic nude mice bearing human xenograft prostate cancer tumor; details: single i.v. injection, 60 days
Protocol: For in vivo efficacy study, athymic nude mice bearing human prostate tumor (−150 mm^3) were divided into five groups of four mice, minimizing, weight and tumor size differences. […] Human xenograft prostate cancer tumors were induced in 6-week old athymic nude mice (NCI Frederick, Md., USA). Mice were injected subcutaneously in the right flank with 2.5×10^6 PC-3 cells suspended in a 1:1 mixture of serum-free media and matrigel (BD Biosciences, Franklin Lakes, N.J., USA). Prior to use in tumor induction, PC-3 cells were cultured in RPMI-1640 medium supplemented with 10% fetal bovine serum, 100 units/ml penicillin G, and 100 mg/ml streptomycin. Tumor targeting studies were carried out after the mice developed ˜150 mm^3 tumors. […] After dosing, the mice were monitored for weight and implanted tumor size daily for sixty days. The length and width of the tumors were measured by digital calipers and tumor volume was calculated by the following formula: (width^2×length)/2 [17]. […]
To evaluate the in vivo efficacy of Ptx-GGbPEG-Apt copolymeric nanoparticles, PC-3 cells were injected subcutaneously in the flanks of athymic nude mice as described above. […] The tumor size and body weight were then monitored for 60 days.

PC-3 cells = test: MTT cytotoxicity assay, PC-3; format: cell-based, human; details: PC-3, 10, 30, 120 minutes treatment, then 72 h
Protocol: as §1, with “At the end of treatment period, medium was removed and replaced with 100 μl of complete culture medium and 10 μl of MTT (5 mg/ml) in each well and the plates were incubated at 37° C. in a humidified, 5% CO2 atmosphere for 3 h. The resulting formazan crystals were solubilized with 100 μl of the stop solution (0.1N HCl in isopropanol).” left out

[3] = i.v.; cited from earlier work

CC(=O)O[C@H]1C(=O)[C@@]2(C)[C@H]([C@H](OC(=O)c3ccccc3)[C@]3(O)C[C@H](OC(=O)[C@H](O)[C@@H](NC(=O)c4ccccc4)c4ccccc4)C(C)=C1C3(C)C)[C@]1(OC(C)=O)CO[C@@H]1C[C@@H]2O [Ptx, Paclitaxel]
cytotoxic effect (DU-145 cells; DU-145, 10, 30, 120 minutes treatment): time-dependent cytotoxicity
viability at 25 µg/mL (DU-145 cells; treated 30 minutes): 50%
viability at 25 µg/mL (DU-145 cells; treated 120 min): 35%
histological examination of tumors by H & E staining (PC-3 tumors [1]): extensively necrotic
efficacy in tumor reduction (comparison of groups) (PC-3 tumors [2]): does not show any significant long-term efficacy
cytotoxic effect (PC-3 cells): time-dependent cytotoxicity
maximal tolerated dose (MTD) [3]: 40 mg/kg
